“Also recorded” adds a separate entry of the source.
Legend:
Type in all cases: cell-based, human
mTOR pathway = assay: Immunoblot for mTOR pathway (p-S6, p-4E-BP1, cyclin D1) in HT-p21 cells
Description: FIG. 3. […] Immunoblot. […] Immunoblot. […] Immunoblot was performed as described in Methods. c. […] After 3 days, cells were washed and incubated in fresh medium w/o drugs for an additional 7 days. […] On days 2, 3, 4, and 5 cells were lysed and protein content per well was measured.
(§1) Cell lines and reagents. […] WI-38-Tert, WI-38 are fibroblasts immortalized by telomerase. […] Cells were grown in high glucose DMEM with 10% FC2 serum. WI-38-tert cells were grown in low glucose DMEM with 10% FCS. Rapamycin was obtained from LC Laboratories (Woburn, Mass.). IPTG (final concentration of 50 μg/ml) and FC2 were obtained from Sigma-Aldrich (St. Louis, Mo.).

p53 = assay: Immunoblot for p53 and p21 in HT-p21-9 and HT-p21-GSE56 cells
Description: Control cells were left untreated (no IPTG). After 1 day, cells were lysed and immunoblot was performed. b. […] As a negative control, parental cells were treated with nutlin-3b (open squares).c-d. […] Control cells were left untreated (no IPTG). c. Morphology. After 3 days, cells were stained for beta-Gal. Scale bars—50 μm.d. Colony formation. After 3 days, cells were washed and incubated in fresh medium w/o drugs for an additional 9 days. Plates were stained with crystal violet and photographed. e. Proliferative potential (PP). After 3 days, HT-p21-GSE56 cells were washed and incubated in fresh medium w/o drugs. Cells were counted and results are shown as percent of IPTG alone.
Cell lines and reagents. HT-p21-9 and HT-p21-a cells are derivatives of HT1080 human fibrosarcoma cells, where p21 expression can be turned on or off using isopropyl-thio-galactosidase (IPTG) (7, 16, 28, 29, 36). […] HT-p16 cells are derivatives of HT1080 cells in which p16 expression can be turned on or off using IPTG (16, 36). WI-38-Tert, WI-38 are fibroblasts immortalized by telomerase. HT-p21-GSE56 cells: p53 inhibiting peptide GSE56 (18) was introduced into HT1080 p21-9 cells via a retroviral vector LXSE (37). Cells were grown in high glucose DMEM with 10% FC2 serum. WI-38-tert cells were grown in low glucose DMEM with 10% FCS. Rapamycin was obtained from LC Laboratories (Woburn, Mass.). IPTG (final concentration of 50 μg/ml) and FC2 were obtained from Sigma-Aldrich (St. Louis, Mo.).
Immunoblot analysis. Proteins were separated on 4-15% gradient Tris-HCl gels (Bio-Rad). The following antibodies were used: mouse anti-actin from Santa Cruz Biotechnology, rabbit anti-phospho-S6 (Ser240/244) and (Ser235/236), mouse anti-S6, mouse anti-phospho-p70 S6 kinase (Thr389), mouse anti-p21 and anti-p53, rabbit anti-phospho-4E-BP1 (Thr37/46) from Cell Signaling; mouse anti-4E-BP1 from Invitrogen, mouse anti-p53 (Ab-6) from Calbiochem.

HT-p21-GSE56 cells = assay: Proliferation, senescence and proliferative potential of HT-p21-GSE56 cells (p53 function blocked); details: 3 days, washed, fresh medium
Description: as §1

HT-p21-9 cells = assay: Metabolic labeling, [35S]methionine/cysteine incorporation (protein synthesis); details: IPTG-treated cells, 24 h treatment
Description: FIG. 3. […] Immunoblot. […] Immunoblot was performed as described in the methods for Example 1 below. b. Immunoblot. […] Immunoblot was performed as described in Methods. c. […] After 3 days, cells were washed and incubated in fresh medium w/o drugs for an additional 7 days. Cells were counted and are shown as percent of IPTG alone. d. […] Cells were treated with either IPTG alone (black bars) or IPTG plus rapamycin (white bars) or plus nutlin-3a (grey bars). On days 2, 3, 4, and 5 cells were lysed and protein content per well was measured. […] Cells were labeled with [^35S]methionine/cysteine as described in Methods for Example 1.
FIG. 8. Effects of IPTG and 500 nM rapamycin on protein synthesis ([^35S]methionine/cysteine incorporation). Cells were treated as indicated for 24 hrs and then labeled with [^35S]methionine/cysteine as described in Methods for Example 1.
Metabolic labeling. HT-p21-9 cells were seeded at 25,000 cells/well in 12-well plates. On the next day, cells were treated with drugs. After 24 h, cells were labeled with 30 μCi [^35S]methionine/cysteine (Amersham) per ml of Met/Cys-free Dulbecco's modified Eagle's medium (Invitrogen) for 1 h at 37° C. Cells were washed with PBS and lysed in 1% SDS, with 0.5% BSA. […] Filters were air-dried and counted using liquid scintillation counter.

[1] = IPTG plus 10 μM nutlin-3a, 24 hr

Question: How did the S6 phosphorylation (mTOR pathway; [1]) turn out when `COc1ccc(C2=N[C@@H](c3ccc(Cl)cc3)[C@@H](c3ccc(Cl)cc3)N2C(=O)N2CCNC(=O)C2)c(OC(C)C)c1` [nutlin-3a] was run?
Answer: The S6 phosphorylation was “inhibited S6 phosphorylation”.

Question: What about the “phosphorylation of 4E-BP1” value (mTOR pathway; [1]) of the same compound?
Answer: The value was “partially inhibited”.

Question: And the “cyclin D1 levels” value (mTOR pathway; IPTG plus nutlin-3a)?
Answer: The value was “normalized elevated levels of cyclin D1”.

Question: What about the mTOR pathway (mTOR pathway; presence or absence of IPTG, 18 hr) of the same compound?
Answer: The mTOR pathway was “inhibited the mTOR pathway both in the presence and absence of IPTG”.

Question: And the “induction of p21 by IPTG in HT-p21-GSE56 cells” value (p53; 1 day)?
Answer: Its value is “did not affect this induction”.

Question: And the “p53 levels in HT-p21-GSE56 cells” value (p53; 1 day)?
Answer: The value was “did not affect p53 levels in HT-p21-GSE56 cells”.

Question: What about the “p53 levels in HT-p21 cells” value (p53; 1 day) of the same compound?
Answer: Its value is “induced p53 in HT-p21 cells”.

Question: What about the “levels of p21 induced by IPTG” value (p53; HT-p21 cells, IPTG plus compound) of the same compound?
Answer: Its value is “neither abrogated nor diminished the levels of p21; also recorded: did not prevent induction of p21 by IPTG”.

Question: What about the “colony formation and proliferative potential (PP) in IPTG-treated HT-p21-GSE56 cells” value (HT-p21-GSE56 cells) of the same compound?
Answer: Its value is “did not preserve colony formation and proliferative potential (PP)”.

Question: What about the “protein synthesis ([35S]methionine/cysteine incorporation)” value (HT-p21-9 cells) of the same compound?
Answer: Its value is “inhibited ^35S-methionine/cysteine incorporation in IPTG-treated HT-p21-9 cells in a dose-dependent manner”.

Source: patent US20120283269A1, “Method and Compositions for Suppression of Aging” (HEALTH RESEARCH INC., priority 2009, published 2012)
